This test has as its system membrane-bound acid phosphatase (MBAcP). The following applies: read-out: K0.5; 50 mM acetate pH 6.0, 37°C; membrane fraction; n = 1.3.

SMILES strings stand for the structures.

As to `O=[N+]([O-])c1ccc(OP(=O)(O)O)cc1` [p-nitrophenylphosphate], the Km was found to be 65 µM.

The values are drawn from article PMC3983855, “Identification and enzymatic characterization of acid phosphatase from Burkholderia gladioli” (BMC Research Notes, 2014).
